Experimental data reported in US10428080B2, “TBK/IKK inhibitor compounds and uses thereof” (Merck Patent GmbH, priority 2015, dated 2019).
Where a name gives a salt, the structure may show the parent alone.

Key:
[1] = system: phosphorylation of the IRF-3 protein in MDA-MB-468 cells; experiment: pIRF3 immunocytochemistry cell based assay; conditions: Homo sapiens; MDA-MB-468 cells, Poly(I:C) stimulation; read-out: pIRF3 IC50
Procedure, shortened: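 After 2 h stimulation with Poly(I:C) (10 ug/ml), following 1 h compound pre-treatment (10-point, 3-fold dilution, top 10 uM), MDA-MB-468 cells were fixed and stained with anti-pIRF3 antibody. pIRF3 fluorescence was normalized to PI staining or cell count on an Acumen cytometer. IC50 curves were derived from this.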

[2] = target: T1, IKKε (Homo sapiens, UniProt Q14164); experiment: IKKe Biochemical Assay; conditions: read-out: IKKε IC50
T1 sequence (Q14164 1-716): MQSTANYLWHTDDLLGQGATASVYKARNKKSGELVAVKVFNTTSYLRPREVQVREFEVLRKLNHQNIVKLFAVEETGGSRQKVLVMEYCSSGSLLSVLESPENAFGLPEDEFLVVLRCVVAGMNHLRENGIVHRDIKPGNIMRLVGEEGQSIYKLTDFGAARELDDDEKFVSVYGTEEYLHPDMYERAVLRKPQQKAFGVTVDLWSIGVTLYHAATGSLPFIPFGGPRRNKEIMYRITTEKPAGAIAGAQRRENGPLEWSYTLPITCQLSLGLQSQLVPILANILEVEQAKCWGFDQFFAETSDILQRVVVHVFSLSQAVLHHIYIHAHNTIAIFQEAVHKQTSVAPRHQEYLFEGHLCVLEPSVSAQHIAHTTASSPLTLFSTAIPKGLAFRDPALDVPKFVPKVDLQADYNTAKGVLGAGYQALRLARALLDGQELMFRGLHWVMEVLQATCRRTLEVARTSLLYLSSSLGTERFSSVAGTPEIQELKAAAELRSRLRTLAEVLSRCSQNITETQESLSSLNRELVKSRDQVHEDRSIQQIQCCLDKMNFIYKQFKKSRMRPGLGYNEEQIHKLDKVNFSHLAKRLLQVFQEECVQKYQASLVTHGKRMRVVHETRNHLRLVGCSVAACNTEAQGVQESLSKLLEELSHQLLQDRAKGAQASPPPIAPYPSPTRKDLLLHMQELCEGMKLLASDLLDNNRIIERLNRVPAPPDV
Procedure, shortened: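 Activity was measured as mobility-shift separation of phosphorylated from unphosphorylated substrate on a LabChip EZ Reader. Compound was titrated from 30 uM final in 10 points, 1:4 steps, with 1% DMSO, and enzyme plus substrate reacted 90 min at 25° C before stop buffer. Control wells held 10 uM staurosporine.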

[3] = target: T2, TBK1 (Homo sapiens, UniProt Q9UHD2); experiment: TBK Biochemical Assay; conditions: read-out: TBK1 IC50
T2 sequence (Q9UHD2 1-729): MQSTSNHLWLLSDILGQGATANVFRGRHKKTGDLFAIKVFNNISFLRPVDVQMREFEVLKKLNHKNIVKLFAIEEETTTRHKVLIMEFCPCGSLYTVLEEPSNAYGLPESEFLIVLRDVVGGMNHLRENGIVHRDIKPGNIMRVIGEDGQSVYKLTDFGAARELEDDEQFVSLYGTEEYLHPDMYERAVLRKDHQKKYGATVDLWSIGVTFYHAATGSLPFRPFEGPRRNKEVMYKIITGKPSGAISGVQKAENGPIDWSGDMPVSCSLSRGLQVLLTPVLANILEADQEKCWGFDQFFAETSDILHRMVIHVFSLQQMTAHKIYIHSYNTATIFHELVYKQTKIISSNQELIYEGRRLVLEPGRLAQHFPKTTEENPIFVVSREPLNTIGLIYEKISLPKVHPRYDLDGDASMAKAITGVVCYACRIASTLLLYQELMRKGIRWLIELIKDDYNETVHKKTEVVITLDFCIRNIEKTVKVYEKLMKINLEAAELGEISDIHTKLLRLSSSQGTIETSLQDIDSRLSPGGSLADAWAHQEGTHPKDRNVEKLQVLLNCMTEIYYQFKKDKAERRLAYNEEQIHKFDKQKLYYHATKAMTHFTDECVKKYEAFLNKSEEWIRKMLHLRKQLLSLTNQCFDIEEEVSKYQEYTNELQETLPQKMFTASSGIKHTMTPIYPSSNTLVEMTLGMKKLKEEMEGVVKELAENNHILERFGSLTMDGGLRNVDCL
Procedure, shortened: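 Caliper LabChip mobility-shift readout of substrate and product after 90 min of TBK1 reaction at 25° C and stop-buffer addition. Compounds tested in 1:4 serial dilution over 10 points from 30 uM final at 1% DMSO; staurosporine 10 uM final defines full inhibition.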

Row | IC50 [1] [nM] | IC50 [2] [nM] | IC50 [3] [nM] | Compound
1 | 1000 to 5000 | < 100 | 100 to 1000 | CN(C)C(=O)c1ccc(-c2cc3nccc(-c4ccc(OC5CCCOC5)c(C#N)c4)c3o2)cc1 (stereo not drawn) [Compound 160]
2 | 100 to 1000 | < 100 | < 100 | COc1cc(C(=O)N(C)C)ncc1-c1cc2nccc(-c3ccc(OC4CCNC4)c(C#N)c3)c2o1 (stereo not drawn) [Compound 429, 5-[7-[3-cyano-4-(pyrrolidin-3-yloxy)phenyl]furo[3,2-b]pyridin-2-yl]-4-methoxy-N,N-dimethylpyridine-2-carboxamide]
3 | 100 to 1000 | < 100 | < 100 | COc1cc(C(=O)N(C)C)ccc1-c1cc2ncc(F)c(-c3ccc(OC4CCOCC4)c(C#N)c3)c2o1 [Compound 298, 4-[7-[3-cyano-4-(oxan-4-yloxy)phenyl]-6-fluorofuro[3,2-b]pyridin-2-yl]-3-methoxy-N,N-dimethylbenzamide]
4 | 100 to 1000 | < 100 | < 100 | COc1cc(C(=O)N2CC[C@@H](N(C)C)C2)ncc1-c1cc2nccc(-c3ccc(N4CC[C@H](F)C4)c(C#N)c3)c2o1 [Compound 450, 5-[2-(6-[[(3R)-3-(dimethylamino)pyrrolidin-1-yl]carbonyl]-4-methoxypyridin-3-yl)furo[3,2-b]pyridin-7-yl]-2-[(3S)-3-fluoropyrrolidin-1-yl]benzonitrile]
5 | 100 to 1000 | 100 to 1000 | 100 to 1000 | COc1cc(C(=O)N(C)C)cnc1-c1cc2nccc(-c3ccc(OC4CCN(C(C)C)C4)c(C#N)c3)c2o1 (stereo not drawn) [Compound 427, 6-(7-(3-cyano-4-(1-isopropylpyrrolidin-3-yloxy)phenyl)furo[3,2-b]pyridin-2-yl)-5-methoxy-N,N-dimethylnicotinamide]
6 | 100 to 1000 | < 100 | < 100 | COc1cc(C(=O)N2CCCC2)cnc1-c1cc2nccc(-c3ccc(OC4CCOCC4)c(C#N)c3)c2o1 [Compound 416, 5-(2-[3-methoxy-5-[(pyrrolidin-1-yl)carbonyl]pyridin-2-yl]furo[3,2-b]pyridin-7-yl)-2-(oxan-4-yloxy)benzonitrile hydrochloride]
7 | 100 to 1000 | < 100 | < 100 | COc1cc(C(=O)N2CC3CN(C)CC3C2)ccc1-c1cc2nccc(-c3ccc(N4CC[C@@H](F)C4)c(C#N)c3)c2o1 (stereo partly drawn) [Compound 501]
8 | < 100 | < 100 | < 100 | COc1cc(C(=O)N2CC3CCC2CN3C)cnc1-c1cc2nccc(-c3ccc(OC4CCOCC4)c(C#N)c3)c2o1 (stereo not drawn) [Compound 406, 5-[2-[3-methoxy-5-(([5-methyl-2,5-diazabicyclo[2.2.2]octan-2-yl]carbonyl)pyridin-2-yl]furo[3,2-b]pyridin-7-yl]-2-(oxan-4-yloxy)benzonitrile hydrochloride]
9 | 100 to 1000 | < 100 | < 100 | COc1cc(C(=O)N2CC3CCC(O)C3C2)ccc1-c1cc2nccc(-c3ccc(OC4CCOCC4)c(C#N)c3)c2o1 (stereo not drawn) [Compound 18, 5-{2-[4-(4-Hydroxy-hexahydro-cyclopenta[c]pyrrole-2-carbonyl)-2-methoxy-phenyl]-furo[3,2-b]pyridin-7-yl}-2-(tetrahydro-pyran-4-yloxy)-benzonitrile]
10 | < 100 | < 100 | < 100 | COc1cc(C(=O)N2C[C@H]3C[C@@H]2CN3C)ccc1-c1cc2nccc(-c3ccc(NC4CCOCC4)c(C#N)c3)c2o1 [Compound 517]

Further lines, the compound ahead of its results:

Row | Compound | IC50 [1] [nM] | IC50 [2] [nM] | IC50 [3] [nM]
11 | COc1cc(C(=O)NCC(O)CO)ccc1-c1cc2nccc(-c3ccc(NC4CCOCC4)c(C#N)c3)c2o1 (stereo not drawn) [Compound 111, 4-{7-[3-Cyano-4-(tetrahydro-pyran-4-ylamino)-phenyl]-furo[3,2-b]pyridin-2-yl}-N-(2,3-dihydroxy-propyl)-3-methoxy-benzamide] | 100 to 1000 | < 100 | < 100
12 | CN(C)C(=O)c1cc(F)c(-c2cc3nccc(-c4ccc(NC5CCOCC5)c(C#N)c4)c3o2)c(F)c1 [Compound 295, 4-(7-[3-cyano-4-[(oxan-4-yl)amino]phenyl]furo[3,2-b]pyridin-2-yl)-3,5-difluoro-N,N-dimethylbenzamide hydrochloride] | 1000 to 5000 | < 100 | 100 to 1000
13 | COc1cc(C(=O)N2CC3CN(C)CC3C2)ccc1-c1cc2nccc(-c3ccc(NC4CCOCC4)c(C#N)c3)c2o1 (stereo not drawn) [Compound 73, 5-{2-[2-Methoxy-4-(5-methyl-hexahydro-pyrrolo[3,4-c]pyrrole-2-carbonyl)-phenyl]-furo[3,2-b]pyridin-7-yl}-2-(tetrahydro-pyran-4-ylamino)-benzonitrile] | < 100 | < 100 | < 100
14 | N#Cc1cc(-c2ccnc3cc(-c4ccc(C(=O)N5CCN(C6CC6)CC5)cc4)oc23)ccc1OC1CCOCC1 [Compound 133, 5-{2-[4-(4-Cyclopropyl-piperazine-1-carbonyl)-phenyl]-furo[3,2-b]pyridin-7-yl}-2-(tetrahydro-pyran-4-yloxy)-benzonitrile] | 1000 to 5000 | < 100 | < 100
15 | COc1cc(C(=O)NC(C)(C)CN(C)C)ccc1-c1cc2nccc(-c3ccc(NC4CCOCC4)c(C#N)c3)c2o1 [Compound 134, 4-{7-[3-Cyano-4-(tetrahydro-pyran-4-ylamino)-phenyl]-furo[3,2-b]pyridin-2-yl}-N-(2-dimethylamino-1,1-dimethyl-ethyl)-3-methoxy-benzamide] | 100 to 1000 | < 100 | < 100
16 | COc1cc(C(=O)O)ccc1-c1cc2nccc(-c3ccc(NC4CCOCC4)c(C#N)c3)c2o1 [Compound 88] | 100 to 1000 | < 100 | < 100
17 | COc1cc(C(=O)N(C)C)ccc1-c1cc2nccc(-c3ccc(C4(N5CCOCC5)CC4)c(C#N)c3)c2o1 [Compound 292, 4-(7-[3-cyano-4-[1-(morpholin-4-yl)cyclopropyl]phenyl]furo[3,2-b]pyridin-2-yl)-3-methoxy-N,N-dimethylbenzamide hydrochloride] | 100 to 1000 | 100 to 1000 | 100 to 1000
18 | COc1cc(C(=O)NCC(C)(C)CN(C)C)ccc1-c1cc2nccc(-c3ccc(OC4CCOCC4)c(C#N)c3)c2o1 [Compound 506, 4-{7-[3-Cyano-4-(tetrahydro-pyran-4-yloxy)-phenyl]-furo[3,2-b]pyridin-2-yl}-N-(3-dimethylamino-2,2-dimethyl-propyl)-3-methoxy-benzamide] | 100 to 1000 | < 100 | < 100
19 | COc1cc(C(=O)NC2CN3CCC2CC3)cnc1-c1cc2nccc(-c3ccc(N4CC[C@@H](F)C4)c(C#N)c3)c2o1 (stereo partly drawn) [Compound 440, N—(S)-1-Aza-bicyclo[2.20.2]oct-3-yl-6-{7-[3-cyano-4-((R)-3-fluoro-pyrrolidin-1-yl)-phenyl]-furo[3,2-b]pyridin-2-yl}-5-methoxy-nicotinamide] | 100 to 1000 | < 100 | < 100
20 | CC(C)N1CCN(C(=O)c2ccc(-c3cc4nccc(-c5ccc(OC6CCOCC6)c(C#N)c5)c4o3)cc2)CC1 [Compound 116, 5-{2-[4-(4-Isopropyl-piperazine-1-carbonyl)-phenyl]-furo[3,2-b]pyridin-7-yl}-2-(tetrahydro-pyran-4-yloxy)-benzonitrile] | 100 to 1000 | < 100 | < 100
